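96-well plates; 48 h exposure; 5 concentrations. Endpoints by linear interpolation between flanking doses. Not reached: highest tested concentration assigned. TGI: total growth inhibition.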
What was measured:
Experiment in all cases: NCI tumour cell line growth inhibition, 48 h
786-0 renal = system: 786-0 renal
A549 NSCLC = system: A549 NSCLC
ACHN renal = system: ACHN renal
BT-549 breast = system: BT-549 breast
CAKI-1 renal = system: CAKI-1 renal
CCRF-CEM leukemia = system: CCRF-CEM leukemia
COLO 205 colon = system: COLO 205 colon
DU-145 prostate = system: DU-145 prostate
EKVX NSCLC = system: EKVX NSCLC
HCC-2998 colon = system: HCC-2998 colon
HCT-116 colon = system: HCT-116 colon
HCT-15 colon = system: HCT-15 colon
HL-60(TB) leukemia = system: HL-60(TB) leukemia
HOP-62 NSCLC = system: HOP-62 NSCLC
HOP-92 NSCLC = system: HOP-92 NSCLC
HS 578T breast = system: HS 578T breast
HT29 colon = system: HT29 colon
IGROV1 ovarian = system: IGROV1 ovarian
K-562 leukemia = system: K-562 leukemia
KM12 colon = system: KM12 colon
LOX IMVI melanoma = system: LOX IMVI melanoma
M14 melanoma = system: M14 melanoma
MALME-3M melanoma = system: MALME-3M melanoma
MCF7 breast = system: MCF7 breast
MDA-MB-231 breast = system: MDA-MB-231 breast
MDA-MB-435 = system: MDA-MB-435
MDA-N = system: MDA-N
MOLT-4 leukemia = system: MOLT-4 leukemia
NCI-H226 lung = system: NCI-H226 lung
NCI-H23 lung = system: NCI-H23 lung
NCI-H460 lung = system: NCI-H460 lung
NCI-H522 lung = system: NCI-H522 lung
NCI/ADR-RES ovarian = system: NCI/ADR-RES ovarian
OVCAR-3 ovarian = system: OVCAR-3 ovarian
OVCAR-4 ovarian = system: OVCAR-4 ovarian
OVCAR-5 ovarian = system: OVCAR-5 ovarian
OVCAR-8 ovarian = system: OVCAR-8 ovarian
PC-3 prostate = system: PC-3 prostate
RPMI-8226 leukemia = system: RPMI-8226 leukemia
RXF 393 renal = system: RXF 393 renal
SF-268 CNS = system: SF-268 CNS
SF-295 CNS = system: SF-295 CNS
SF-539 CNS = system: SF-539 CNS
SK-MEL-2 melanoma = system: SK-MEL-2 melanoma
SK-MEL-28 melanoma = system: SK-MEL-28 melanoma
SK-MEL-5 melanoma = system: SK-MEL-5 melanoma
SK-OV-3 ovarian = system: SK-OV-3 ovarian
SN12C renal = system: SN12C renal
SNB-19 CNS = system: SNB-19 CNS
SNB-75 CNS = system: SNB-75 CNS
SR leukemia = system: SR leukemia
SW-620 colon = system: SW-620 colon
T-47D breast = system: T-47D breast
TK-10 renal = system: TK-10 renal
U251 CNS = system: U251 CNS
UACC-257 melanoma = system: UACC-257 melanoma
UACC-62 melanoma = system: UACC-62 melanoma
UO-31 renal = system: UO-31 renal
A498 renal = system: A498 renal

## OCC(O)C(O)C(O)C(O)CNCCO/N=C1/C(c2c(O)[nH]c3ccccc23)=Nc2ccccc21 (stereo not given)
786-0 renal
  TGI: > 50 µM
A549 NSCLC
  TGI: > 50 µM
ACHN renal
  TGI: > 50 µM
BT-549 breast
  TGI: 41.7 µM
CAKI-1 renal
  TGI: > 50 µM
CCRF-CEM leukemia
  TGI: 30.2 µM
COLO 205 colon
  TGI: 40.6 µM
DU-145 prostate
  TGI: > 50 µM
EKVX NSCLC
  TGI: > 50 µM
HCC-2998 colon
  TGI: 28.7 µM
HCT-116 colon
  TGI: 38.2 µM
HCT-15 colon
  TGI: > 50 µM
HL-60(TB) leukemia
  TGI: 37.9 µM
HOP-62 NSCLC
  TGI: 22.9 µM
HOP-92 NSCLC
  TGI: 26.9 µM
HS 578T breast
  TGI: 44.4 µM
HT29 colon
  TGI: > 50 µM
IGROV1 ovarian
  TGI: > 50 µM
K-562 leukemia
  TGI: 44.4 µM
KM12 colon
  TGI: > 50 µM
LOX IMVI melanoma
  TGI: 17.3 µM
M14 melanoma
  TGI: > 50 µM
MALME-3M melanoma
  TGI: 27.7 µM
MCF7 breast
  TGI: 33.1 µM
MDA-MB-231 breast
  TGI: 29.7 µM
MDA-MB-435
  TGI: 20.4 µM
MDA-N
  TGI: 19.4 µM
MOLT-4 leukemia
  TGI: 36.3 µM
NCI-H226 lung
  TGI: > 50 µM
NCI-H23 lung
  TGI: 23.7 µM
NCI-H460 lung
  TGI: > 50 µM
NCI-H522 lung
  TGI: 33 µM
NCI/ADR-RES ovarian
  TGI: > 50 µM
OVCAR-3 ovarian
  TGI: 26.3 µM
OVCAR-4 ovarian
  TGI: > 50 µM
OVCAR-5 ovarian
  TGI: > 50 µM
OVCAR-8 ovarian
  TGI: > 50 µM
PC-3 prostate
  TGI: 30.8 µM
RPMI-8226 leukemia
  TGI: > 50 µM
RXF 393 renal
  TGI: 39.2 µM
SF-268 CNS
  TGI: 28 µM
SF-295 CNS
  TGI: > 50 µM
SF-539 CNS
  TGI: 41.6 µM
SK-MEL-2 melanoma
  TGI: 15.7 µM
SK-MEL-28 melanoma
  TGI: 20.7 µM
SK-MEL-5 melanoma
  TGI: 16.3 µM
SK-OV-3 ovarian
  TGI: 29.8 µM
SN12C renal
  TGI: 46.4 µM
SNB-19 CNS
  TGI: 35.9 µM
SNB-75 CNS
  TGI: 24.5 µM
SR leukemia
  TGI: 25.3 µM
SW-620 colon
  TGI: > 50 µM
T-47D breast
  TGI: 22.5 µM
TK-10 renal
  TGI: > 50 µM
U251 CNS
  TGI: 39.8 µM
UACC-257 melanoma
  TGI: 37.9 µM
UACC-62 melanoma
  TGI: 17.5 µM
UO-31 renal
  TGI: > 50 µM

## COC(=O)CC1C2(C)C3=C(C)C(c4ccoc4)CC3OC2C2OC(=O)C3(C)C=CC(=O)C1(C)C23 (stereo not given)
786-0 renal
  TGI: 2.34 µM
A498 renal
  TGI: 4.99 µM
A549 NSCLC
  TGI: 11.4 µM
ACHN renal
  TGI: 2.52 µM
BT-549 breast
  TGI: 2.35 µM
CAKI-1 renal
  TGI: 2.15 µM
CCRF-CEM leukemia
  TGI: 2.17 µM
COLO 205 colon
  TGI: 3.58 µM
DU-145 prostate
  TGI: 2.06 µM
EKVX NSCLC
  TGI: 3.89 µM
HCC-2998 colon
  TGI: 2.7 µM
HCT-116 colon
  TGI: 2.28 µM
HCT-15 colon
  TGI: 3.15 µM
HL-60(TB) leukemia
  TGI: 2.76 µM
HOP-62 NSCLC
  TGI: 9.1 µM
HOP-92 NSCLC
  TGI: 5.52 µM
HS 578T breast
  TGI: > 96.3 µM
HT29 colon
  TGI: 2.49 µM
IGROV1 ovarian
  TGI: 3.29 µM
K-562 leukemia
  TGI: 4.82 µM
KM12 colon
  TGI: 3.55 µM
LOX IMVI melanoma
  TGI: 2.3 µM
M14 melanoma
  TGI: 3.25 µM
MALME-3M melanoma
  TGI: 2.48 µM
MCF7 breast
  TGI: 1.95 µM
MDA-MB-231 breast
  TGI: 2.81 µM
MDA-MB-435
  TGI: 2.69 µM
MDA-N
  TGI: 2.93 µM
MOLT-4 leukemia
  TGI: 1.77 µM
NCI-H226 lung
  TGI: 7.68 µM
NCI-H23 lung
  TGI: 3.52 µM
NCI-H460 lung
  TGI: 3.26 µM
NCI-H522 lung
  TGI: 3.22 µM
NCI/ADR-RES ovarian
  TGI: 14.1 µM
OVCAR-3 ovarian
  TGI: 7.56 µM
OVCAR-4 ovarian
  TGI: 10.1 µM
OVCAR-5 ovarian
  TGI: 5.44 µM
OVCAR-8 ovarian
  TGI: 5.44 µM
PC-3 prostate
  TGI: 3.43 µM
RPMI-8226 leukemia
  TGI: 1.16 µM
RXF 393 renal
  TGI: 3 µM
SF-268 CNS
  TGI: 7.62 µM
SF-295 CNS
  TGI: 13 µM
SF-539 CNS
  TGI: 3.03 µM
SK-MEL-2 melanoma
  TGI: 3.58 µM
SK-MEL-28 melanoma
  TGI: 2.66 µM
SK-MEL-5 melanoma
  TGI: 3.03 µM
SK-OV-3 ovarian
  TGI: 14.9 µM
SN12C renal
  TGI: 2.58 µM
SNB-19 CNS
  TGI: 7.1 µM
SNB-75 CNS
  TGI: 12.3 µM
SW-620 colon
  TGI: 4.39 µM
T-47D breast
  TGI: 2.92 µM
TK-10 renal
  TGI: 5.94 µM
U251 CNS
  TGI: 2.95 µM
UACC-257 melanoma
  TGI: 5.02 µM
UACC-62 melanoma
  TGI: 3.79 µM
UO-31 renal
  TGI: 2.52 µM

## CC(=O)Nc1ncc2c(n1)-c1ccccc1OC2c1ccccc1 (stereo not given)
786-0 renal
  TGI: 38.2 µM
A498 renal
  TGI: 51.6 µM
A549 NSCLC
  TGI: > 100 µM
ACHN renal
  TGI: 28.2 µM
BT-549 breast
  TGI: > 100 µM
CAKI-1 renal
  TGI: 68.3 µM
CCRF-CEM leukemia
  TGI: > 100 µM
COLO 205 colon
  TGI: > 100 µM
DU-145 prostate
  TGI: > 100 µM
EKVX NSCLC
  TGI: > 100 µM
HCT-116 colon
  TGI: > 100 µM
HCT-15 colon
  TGI: > 100 µM
HL-60(TB) leukemia
  TGI: > 100 µM
HOP-92 NSCLC
  TGI: 41.4 µM
HS 578T breast
  TGI: 55.4 µM
HT29 colon
  TGI: > 100 µM
IGROV1 ovarian
  TGI: > 100 µM
KM12 colon
  TGI: > 100 µM
LOX IMVI melanoma
  TGI: > 100 µM
M14 melanoma
  TGI: > 100 µM
MCF7 breast
  TGI: > 100 µM
MDA-MB-231 breast
  TGI: 75.3 µM
MDA-MB-435
  TGI: > 100 µM
MDA-N
  TGI: > 100 µM
MOLT-4 leukemia
  TGI: > 100 µM
NCI-H226 lung
  TGI: 52.1 µM
NCI-H23 lung
  TGI: > 100 µM
NCI-H460 lung
  TGI: > 100 µM
NCI-H522 lung
  TGI: > 100 µM
NCI/ADR-RES ovarian
  TGI: > 100 µM
OVCAR-3 ovarian
  TGI: > 100 µM
OVCAR-4 ovarian
  TGI: 85.5 µM
OVCAR-5 ovarian
  TGI: > 100 µM
OVCAR-8 ovarian
  TGI: 66.2 µM
PC-3 prostate
  TGI: > 100 µM
RPMI-8226 leukemia
  TGI: > 100 µM
RXF 393 renal
  TGI: 63.2 µM
SF-268 CNS
  TGI: 63.5 µM
SF-295 CNS
  TGI: > 100 µM
SF-539 CNS
  TGI: 35.1 µM
SK-MEL-2 melanoma
  TGI: > 100 µM
SK-MEL-5 melanoma
  TGI: > 100 µM
SK-OV-3 ovarian
  TGI: > 100 µM
SN12C renal
  TGI: > 100 µM
SNB-19 CNS
  TGI: 89.6 µM
SNB-75 CNS
  TGI: 40.5 µM
SR leukemia
  TGI: > 100 µM
SW-620 colon
  TGI: > 100 µM
T-47D breast
  TGI: 68.4 µM
TK-10 renal
  TGI: 63.2 µM
U251 CNS
  TGI: > 100 µM
UACC-257 melanoma
  TGI: > 100 µM
UACC-62 melanoma
  TGI: 36.4 µM
UO-31 renal
  TGI: > 100 µM
